# Measured values taken from ChEMBL document CHEMBL1201862, “PubChem BioAssay data set” (2004).
# Active and inactive are the calls of the source.
# How the values were obtained:
# [1] = biological target: T1, Cytochrome P450 1A2 (Homo sapiens, UniProt P05177);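 also: PubChem cytochrome P450 panel assay, CYP1A2 panel member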
# T1 sequence (P05177 whole entry): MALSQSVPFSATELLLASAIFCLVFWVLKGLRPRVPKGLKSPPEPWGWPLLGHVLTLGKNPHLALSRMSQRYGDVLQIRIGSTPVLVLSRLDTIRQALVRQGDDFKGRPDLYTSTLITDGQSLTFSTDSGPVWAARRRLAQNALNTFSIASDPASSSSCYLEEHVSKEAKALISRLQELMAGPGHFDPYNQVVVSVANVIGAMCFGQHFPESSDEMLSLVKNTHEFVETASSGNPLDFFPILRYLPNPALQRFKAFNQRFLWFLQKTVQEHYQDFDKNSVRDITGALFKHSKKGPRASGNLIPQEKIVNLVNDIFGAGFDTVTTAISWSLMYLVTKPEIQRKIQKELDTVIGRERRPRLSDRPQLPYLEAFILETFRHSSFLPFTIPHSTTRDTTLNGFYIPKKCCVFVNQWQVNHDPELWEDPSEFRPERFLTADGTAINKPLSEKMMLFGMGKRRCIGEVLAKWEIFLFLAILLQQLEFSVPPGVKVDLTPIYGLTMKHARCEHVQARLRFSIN
# [2] = biological target: T2, fMet-Leu-Phe receptor (Homo sapiens, UniProt P21462); experiment: formyl peptide receptor binders – dose response (AID 519); type: functional
# T2 sequence (P21462 whole entry): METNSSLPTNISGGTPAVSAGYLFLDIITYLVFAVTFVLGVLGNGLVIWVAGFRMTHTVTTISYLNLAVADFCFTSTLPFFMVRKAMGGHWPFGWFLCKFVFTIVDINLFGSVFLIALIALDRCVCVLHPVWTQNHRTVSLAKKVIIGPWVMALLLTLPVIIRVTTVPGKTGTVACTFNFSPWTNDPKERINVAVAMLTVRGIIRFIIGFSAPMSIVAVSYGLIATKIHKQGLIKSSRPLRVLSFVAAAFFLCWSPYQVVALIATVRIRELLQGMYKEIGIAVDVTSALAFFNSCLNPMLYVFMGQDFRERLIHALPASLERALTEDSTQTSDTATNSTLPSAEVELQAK
# [3] = biological target: Cytochrome P450 3A4 (Homo sapiens, UniProt P08684);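 also: CYP3A4 tested as one member of a cytochrome P450 panel screen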
# [4] = biological target: T3, Tyrosine-protein phosphatase non-receptor type 7 (Homo sapiens, UniProt P35236); experiment: HePTP tyrosine phosphatase activity blockers – biochemical, absorbance, leukemia target, primary screen (AID 521); type: functional
# T3 sequence (P35236 whole entry): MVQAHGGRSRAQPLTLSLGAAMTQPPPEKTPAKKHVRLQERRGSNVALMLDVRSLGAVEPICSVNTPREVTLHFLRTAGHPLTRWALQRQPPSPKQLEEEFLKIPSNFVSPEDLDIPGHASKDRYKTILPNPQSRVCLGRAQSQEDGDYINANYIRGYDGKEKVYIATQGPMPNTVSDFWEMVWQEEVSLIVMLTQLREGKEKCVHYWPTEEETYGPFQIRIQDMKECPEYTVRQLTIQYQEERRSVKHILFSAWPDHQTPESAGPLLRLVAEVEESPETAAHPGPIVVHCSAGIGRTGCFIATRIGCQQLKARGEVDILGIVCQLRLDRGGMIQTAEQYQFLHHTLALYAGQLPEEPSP
# [5] = viability of PTEN-deleted HCT116 cells – cell-based, HCT116 PTEN knockout, dose response (AID 1047); type: functional;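 also: HCT116 colon tumor cells with PTEN knocked out; cells exposed to compound for 60 hours before readout; potency for loss of cell viability measured by luminescence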
# [6] = NIH3T3 cell viability loss – ATP luminescence, mouse fibroblasts, counter-screen, dose response (AID 2010); type: functional, cell-based;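 also: cells exposed to compound for about 90 hours before reading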
# [7] = viability of HCT116 lacking mutant beta-catenin – cell-based, human colon tumor, dose response (AID 1045); type: functional;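 also: HCT116 colon tumor cells with beta catenin knocked out; cells exposed to compound for 60 hours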
# [8] = Trypanosoma cruzi growth suppression in host cells – NIH3T3 host cells, beta-gal luminescence, confirmation (AID 2044); type: functional, cell-based;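 also: intracellular parasites grown in NIH/3T3 mouse fibroblasts as host cells; luminescent beta-galactosidase reporter signal from transgenic T. cruzi replicating inside host cells; inhibitors lower the luminescence signal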
# [9] = viability of uninfected HEp-2 cells – cell-based, HTS, cytotoxicity control for RSV inhibitor project, dose response (AID 2410); type: functional; details: human respiratory syncytial virus
# [10] = biological target: Prothrombin (Homo sapiens, UniProt P00734); experiment: Thrombin 1536 HTS Dose Response Confirmation. [Related pubchem assays: 1046 (Thrombin 1536 HTS; hits were confirmed in this assay)]; type: functional
# [11] = A cytotoxicity screen of small molecule inhibitors of the PhoP region in Salmonella typhi identified in the primary screen. [Related pubchem assays: 1850, 1864, 1985 ]; type: functional
# Chain of Cytochrome P450 3A4 (P08684 whole entry): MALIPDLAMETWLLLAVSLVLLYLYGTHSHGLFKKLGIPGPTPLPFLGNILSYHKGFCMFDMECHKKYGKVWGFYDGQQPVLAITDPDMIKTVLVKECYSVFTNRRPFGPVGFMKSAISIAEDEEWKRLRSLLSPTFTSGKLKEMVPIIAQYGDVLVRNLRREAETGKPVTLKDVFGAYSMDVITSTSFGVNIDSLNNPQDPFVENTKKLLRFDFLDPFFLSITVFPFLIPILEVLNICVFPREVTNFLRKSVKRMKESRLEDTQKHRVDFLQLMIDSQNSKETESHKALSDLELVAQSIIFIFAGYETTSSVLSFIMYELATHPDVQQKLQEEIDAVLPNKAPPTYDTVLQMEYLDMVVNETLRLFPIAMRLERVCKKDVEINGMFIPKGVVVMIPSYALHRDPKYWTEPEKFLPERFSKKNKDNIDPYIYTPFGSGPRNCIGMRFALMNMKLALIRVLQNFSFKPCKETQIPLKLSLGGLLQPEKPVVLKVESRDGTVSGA
smiles,measurement,setting,value
O=C(C1=C(O)C(=O)N(Cc2ccco2)C1c1ccccc1)c1cccs1 (stereo not given),AC50,[1],25.1 µM (inconclusive)
same,Ki,[2],35.2 µM (inactive)
same,AC50,[3],14.1 µM (inconclusive)
Cc1csc(NC(=O)CCn2c(=O)oc3ccccc32)n1,Ki,[2],> 66.7 µM (inactive)
COc1ccc(NC(=O)CN2CCN(c3ccccc3F)CC2)cc1,IC50,[4],> 100 µM (not active)
COc1cc(CNC2CCCC2)cc(Cl)c1OCc1ccccc1F,EC50,[5],19.9 µM (active)
same,EC50,[6],> 60 µM (not active)
same,EC50,[7],19.1 µM (active)
same,EC50,[8],2.01 µM (active)
CCOc1ccccc1-n1c(SCC(=O)NC(C)(C)C)nnc1-c1ccoc1C,IC50,[4],> 100 µM (not active)
COc1ccc(OC)c(C2C(C(=O)c3cccs3)=C(O)C(=O)N2c2cc(C)on2)c1 (stereo not given),Ki,[2],> 66.7 µM (inactive)
COc1ccc(-c2nnc(SCC(=O)Nc3sc4c(c3C#N)CCCC4)n2-c2ccccc2)cc1,EC50,[5],5.14 µM (active)
same,CC50,[9],9.89 µM (active)
same,EC50,[7],5.75 µM (active)
COCCN(CCOC)S(=O)(=O)c1ccc(C(=O)Nc2nc3c(s2)CCc2ccccc2-3)cc1,EC50,[5],8.49 µM (active)
same,EC50,[7],13.1 µM (active)
C=CCN1C(=O)C(C(C)CC)NC1=S (stereo not given),IC50,[10],> 50 µM (not active)
C=C(C)CN(CC)C(=O)CC1C(=O)NCCN1CC(C)(C)C (stereo not given),IC50,[10],> 50 µM (not active)
CC(C)(C)n1nc2c(c1NC(=O)Cc1cccs1)CSC2,EC50,[11],> 50 µM (active)
c1ccc(-c2nn[nH]c2-c2ccccc2)cc1,IC50,[4],> 100 µM (not active)
